According to patent publication US20260042755A1, “GPR6 INVERSE AGONISTS” (MapLight Therapeutics, Inc., priority 2022, published 2026):

Columns and labels:
GPR6 = target: T1, GPR6 (Homo sapiens, UniProt P46095); test: GPR6 antagonist functional cAMP assay (LANCE Ultra cAMP TR-FRET, CHO cells stably expressing GPR6); type: cell-based
T1 construct: expressed in transfected cells; host or cells: CHO cells
Experimental: (§1) Example 56. GPR6 and GPR3 Antagonist Functional cAMP Assay
(§2) CHO cells stably expressing GPR6 or GPR3 receptors were dissociated from cell culture flasks and incubated for 2 h at 37° C. in a 10 cm dish in a humidified incubator. Cells were dissociated, counted to have 1e6 cells/mL (4.5e6 cells needed/384-well plate), washed once in starved media, than in D-PBS and finally suspended in assay buffer (Krebs-Ringer Bicarbonate Buffer with 1800 mg/L glucose, without calcium chloride and sodium bicarbonate (Sigma) in the presence of 0.1% BSA and 150 μM of Ro 20-1724 Phosphodiesterase inhibitor).
(§3) Cells in suspension from above were plated in 384-well white Optiplate (PerkinElmer) at 10,000 cells/well/10 μl, briefly centrifuged prior direct addition of compounds ([…]) in 10 mM DMSO using a Tecan D300e Digital Dispenser, final DMSO in each well was normalized to 0.1%. Cells were incubated in the presence of compounds for 45 min at 37° C. in a humidified incubator.
(§4) To measure cAMP levels, LANCE® Ultra cAMP assay (Perkin Elmer), a homogeneous time-resolved fluorescence resonance energy transfer (TR-FRET) immunoassay was used following manufacturer's recommendations. Plates were shaken for 1 h at room temperature before reading on a Tecan InfiniteF200Pro multi-mode plate reader using standard FRET settings (Excitation 340 nm, Emission at 615 nm). FRET values were reported as readings obtained at 665 nm. Data were normalized to DMSO (0.1%) and reference compounds (100%) and fit to a 4-parameter logistical fit to generate antagonist IC50s.

GPR3 = target: T2, GPR3 (Homo sapiens, UniProt P46089); test: GPR3 antagonist functional cAMP assay (LANCE Ultra cAMP TR-FRET, CHO cells stably expressing GPR3); type: cell-based
T2 construct: expressed in transfected cells; host or cells: CHO cells
Experimental: as §1, §2, §3, §4

[1] = CHO cells stably expressing GPR6, cAMP assay (Example 24)
[2] = CHO cells stably expressing GPR3, cAMP assay (Example 24)

T2 sequence (P46089 whole entry, species assumed): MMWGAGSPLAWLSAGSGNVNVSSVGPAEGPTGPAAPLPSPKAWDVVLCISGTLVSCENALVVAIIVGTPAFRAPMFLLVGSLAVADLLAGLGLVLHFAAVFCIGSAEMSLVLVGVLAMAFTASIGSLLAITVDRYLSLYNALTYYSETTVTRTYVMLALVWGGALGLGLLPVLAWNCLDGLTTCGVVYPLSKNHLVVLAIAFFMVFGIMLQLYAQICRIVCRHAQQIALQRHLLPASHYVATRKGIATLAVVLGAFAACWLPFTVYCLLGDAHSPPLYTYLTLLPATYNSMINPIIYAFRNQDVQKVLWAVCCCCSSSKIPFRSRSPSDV
T1 sequence (P46095 whole entry): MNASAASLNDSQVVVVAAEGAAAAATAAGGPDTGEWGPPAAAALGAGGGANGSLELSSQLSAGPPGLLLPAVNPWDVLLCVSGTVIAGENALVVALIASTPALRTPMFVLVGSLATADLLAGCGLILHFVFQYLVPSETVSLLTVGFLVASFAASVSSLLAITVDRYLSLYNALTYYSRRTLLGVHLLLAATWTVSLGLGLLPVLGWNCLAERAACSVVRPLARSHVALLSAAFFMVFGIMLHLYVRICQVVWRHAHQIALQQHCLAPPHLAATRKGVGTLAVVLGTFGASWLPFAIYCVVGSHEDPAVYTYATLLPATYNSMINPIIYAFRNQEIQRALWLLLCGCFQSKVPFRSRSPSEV

SMILES | IC50 (GPR6; procedure of Example 24) [nM] | IC50 (GPR3; procedure of Example 24) [nM] | IC50 (GPR6; [1]) [nM] | IC50 (GPR3; [2]) [nM]
CC(C)(O)[C@H](O)c1cc2nc(N3CCN(Cc4cc(F)ccc4F)CC3)c(-c3cnn(CF)c3)nc2cn1 (single isomer, unassigned) [Compound 726] | 100 to 1000 | 1000 to 30000 |  | 
Fc1ccc(OC2CC=C(c3nc4cnccc4nc3-c3ncco3)CC2)c(F)c1 (centres unmarked) [Compound 304, 2-{3-[4-(2,4-difluorophenoxy)cyclohex-1-en-1-yl]pyrido[3,4-b]pyrazin-2-yl}-1,3-oxazole] | 1000 to 30000 | ≥ 30000 |  | 
CCc1nccc(-c2nc3c(nc2N2CCC(Oc4ccc(F)cc4F)CC2)CCN(C(C)=O)C3)n1 [Compound 479, 1-{2-[4-(2,4-difluorophenoxy)piperidin-1-yl]-3-(2-ethylpyrimidin-4-yl)-5H,6H,7H,8H-pyrido[3,4-b]pyrazin-6-yl}ethan-1-one] |  |  | 1000 to 30000 | 1000 to 30000
CC(=O)N1CCc2nc(N3CCC(=Cc4ccccc4F)CC3)c(-c3cnn(C)c3)nc2C1 [Compound 623, 1-(2-{4-[(o-fluorophenyl)methylene]-1-piperidyl}-3-(1-methyl-4-pyrazolyl)-5,6,7,8-tetrahydro-1,4,6-triaza-6-naphthyl)-1-ethanone] | 100 to 1000 | 100 to 1000 |  | 
CC(=O)N1CCc2nc(N3CCC(Oc4c(F)cc(F)cc4F)CC3)c(-c3cnn(C)c3)nc2C1 [Compound 428, 1-[3-(1-methyl-1H-pyrazol-4-yl)-2-[4-(2,4,6-trifluorophenoxy)piperidin-1-yl]-5H,6H,7H,8H-pyrido[3,4-b]pyrazin-6-yl]ethan-1-one] |  |  | 100 to 1000 | 1000 to 30000
COCC(=O)N1CCc2nc(N3CCC(Oc4ccc(F)cc4F)CC3)c(-c3ccc(F)c(N)n3)nc2C1 [Compound 628, 1-{3-(6-amino-5-fluoro-2-pyridyl)-2-[4-(2,4-difluorophenoxy)-1-piperidyl]-5,6,7,8-tetrahydro-1,4,6-triaza-6-naphthyl}-2-methoxy-1-ethanone] | 100 to 1000 | 1000 to 30000 |  | 
CC(=O)N1CCc2nc(N3CCC(Oc4ccc(F)cc4F)CC3)c(C3=CCOC3)nc2C1 [Compound 306, 1-{2-[4-(2,4-difluorophenoxy)piperidin-1-yl]-3-(2,5-dihydrofuran-3-yl)-5H,6H,7H,8H-pyrido[3,4-b]pyrazin-6-yl}ethan-1-one] | 100 to 1000 | 1000 to 30000 |  | 
CC(C)(O)[C@@H](O)c1cc2nc(-c3cn[nH]c3)c(N3CCN(Cc4ccc(F)cc4F)CC3)nc2cn1 (single isomer, unassigned) [Compound 800] | 100 to 1000 | 1000 to 30000 |  | 

Next, values leading:

IC50 (GPR6; procedure of Example 24) [nM] | IC50 (GPR3; procedure of Example 24) [nM] | IC50 (GPR6; [1]) [nM] | IC50 (GPR3; [2]) [nM] | SMILES
100 to 1000 | 1000 to 30000 |  |  | CC(C)(O)C(C)(O)c1cc2nc(-c3cnn(C4CC4)c3)c(N3CCN(Cc4ccc(F)cc4F)CC3)nc2cn1 (centres unmarked) [Compound 653, 2-[2-(1-cyclopropyl-4-pyrazolyl)-3-{4-[(2,4-difluorophenyl)methyl]-1-piperazinyl}-1,4,6-triaza-7-naphthyl]-3-methyl-2,3-butanediol]
 |  | 1000 to 30000 | 1000 to 30000 | CNC(=O)C(C)N1CCc2nc(N3CCC(Oc4ccc(F)cc4F)CC3)c(-c3cn[nH]c3)nc2C1 (centres unmarked) [Compound 147, 2-{2-[4-(2,4-difluorophenoxy)piperidin-1-yl]-3-(1H-pyrazol-4-yl)-5H,6H,7H,8H-pyrido[3,4-b]pyrazin-6-yl}-N-methylpropanamide]
 |  | 1000 to 30000 | ≥ 30000 | OCC1CN(c2nc3ccncc3nc2-c2cn[nH]c2)CCN1Cc1ccc(F)cc1F (single isomer, unassigned) [Compound 93, (4-(3-(1H-pyrazol-4-yl)pyrido[3,4-b]pyrazin-2-yl)-1-(2,4-difluorobenzyl)piperazin-2-yl)methanol]
 |  |  | 1000 to 30000 | COc1nc(-c2nc3c(nc2N2CCC(Oc4ccc(F)cc4F)CC2)CCN(C(C)=O)C3)ccc1F [Compound 83, 1-{2-[4-(2,4-difluorophenoxy)piperidin-1-yl]-3-(5-fluoro-6-methoxypyridin-2-yl)-5H,6H,7H,8H-pyrido[3,4-b]pyrazin-6-yl}ethan-1-one]
